Measured values taken from US9708370B2, “Azapeptides as CD36 binding compounds” (VALORISATION-RECHERCHE, LIMITED PARTNERSHIP, priority 2007, dated 2017).
Starred links: 1 amine or outer side, 2 acyl side, 3 side chain; linkers in the order of their positions; H or OH if unused. Non-standard residues stand in square brackets, D forms with d. Residues, ends and D or L forms follow the SMILES beside them. azaTyr = O=C(N(Cc1ccc(O)cc1)N[*:1])[*:2]

How the values were obtained:
human GHS-R1a = human GHS-R1a (Homo sapiens (Human), UniProt Q92847); experiment: GHS-R1a binding assay, competition with 125I-ghrelin on membranes of LLC-PK1 cells expressing human GHS-R1a
CD36 = CD36 (Rattus norvegicus (Rat), UniProt Q07969); experiment: CD36 receptor covalent photolabelling binding assay, competition with [125I]Tyr-Bpa-Ala-hexarelin on rat cardiac membranes
CD36, sequence (Q07969 whole entry): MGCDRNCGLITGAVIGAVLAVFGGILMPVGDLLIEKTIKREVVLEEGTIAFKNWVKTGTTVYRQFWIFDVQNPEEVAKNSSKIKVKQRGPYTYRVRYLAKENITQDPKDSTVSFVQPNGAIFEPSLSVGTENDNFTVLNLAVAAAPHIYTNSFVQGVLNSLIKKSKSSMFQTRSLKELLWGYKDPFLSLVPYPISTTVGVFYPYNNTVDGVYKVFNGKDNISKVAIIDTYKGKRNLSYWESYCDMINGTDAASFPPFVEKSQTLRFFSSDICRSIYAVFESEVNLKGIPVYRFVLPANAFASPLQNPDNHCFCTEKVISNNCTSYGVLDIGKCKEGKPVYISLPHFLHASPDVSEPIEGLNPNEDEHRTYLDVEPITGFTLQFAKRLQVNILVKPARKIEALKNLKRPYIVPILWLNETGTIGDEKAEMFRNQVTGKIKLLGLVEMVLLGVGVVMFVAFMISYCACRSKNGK

human GHS-R1a, sequence (Q92847 whole entry): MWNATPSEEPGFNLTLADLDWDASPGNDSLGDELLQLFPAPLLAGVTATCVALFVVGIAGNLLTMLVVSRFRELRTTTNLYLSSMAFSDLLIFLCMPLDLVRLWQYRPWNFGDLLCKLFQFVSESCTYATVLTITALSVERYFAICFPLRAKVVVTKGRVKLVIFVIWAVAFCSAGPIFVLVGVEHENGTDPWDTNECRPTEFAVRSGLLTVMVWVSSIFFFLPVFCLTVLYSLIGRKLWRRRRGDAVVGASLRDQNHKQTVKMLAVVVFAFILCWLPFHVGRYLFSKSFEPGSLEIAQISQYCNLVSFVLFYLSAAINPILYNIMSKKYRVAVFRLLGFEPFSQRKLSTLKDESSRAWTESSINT

In the case of `C[C@H](NC(=O)[C@@H](Cc1c[nH]c2ccccc12)NC(=O)[C@@H](N)Cc1cnc[nH]1)C(=O)NN(Cc1ccc(O)cc1)C(=O)N[C@H](Cc1ccccc1)C(=O)N[C@@H](CCCCN)C(N)=O` [DBG178p, His-D-Trp-Ala-azaTyr-D-Phe-Lys-NH2] (H-H[dW]A[azaTyr][dF]K-NH2), the IC50 (human GHS-R1a; Table 4, LLCPK-1 membranes overexpressing GHS-R1a, radioiodinated (1-28) rat ghrelin as tracer, read-out: EC50 (text: IC50 values from competition curves in GHS-R1a radioreceptor assay)) is reported as 15.7 µM, the “binding affinity for GHS-R1a receptor in words” value (human GHS-R1a; compared with GHRP-6) is reported as “reducing the binding affinity” and the IC50 (CD36; Table 3, rat cardiac membranes, [125I]Tyr-Bpa-Ala-hexarelin as radioligand, read-out: IC50, binding affinity of aza peptide derivatives towards CD36) is reported as 28 µM. For the same molecule, the “binding activity/affinity at CD36 in words” value (CD36; compared with parent peptide GHRP-6 or hexarelin) was “maintaining the binding activity”.
